IC50 data for 14 compounds are collected here from patent publication EP4559912A1, “SULFUR-CONTAINING HETEROAROMATIC RING COMPOUND, PHARMACEUTICAL COMPOSITION THEREOF, AND USE THEREOF” (Evopoint Biosciences Co., Ltd., priority 2022, dated 2024).

This assay deals with His-GST tagged PARG (Homo sapiens, UniProt Q86W56). Kind of assay: In vitro PARG assay (TR-FRET). It counts as biochemical. Conditions: 4 pM His-GST tagged PARG, 30 nM Bio PARylated PARP1 substrate, 20 min at room temperature, TR-FRET Em 665/Em 615. Here is the method:
The in vitro PARG assay experiment was conducted in a standard 384-well plate with a total volume of 15 µL. To a 384-well plate containing the test compound was added 5 µL of an enzyme reaction mixture (50 mM Tris-HCL pH 7.5, 50 mM KCL, 0.01% Triton X-100, 0.01% BSA, and 4 pM His-GST tagged PARG). The plate was incubated at room temperature for 10 min, and then 5 µL of a substrate mixture (50 mM Tris-HCL pH 7.5, 50 mM KCL, 0.01% Triton X-100, 0.01% BSA, and 30 nM Bio PARylated PARP1) was added to initiate the reaction. The plate was further incubated at room temperature for 20 min, and then 5 µL of a detection reagent was added to terminate the reaction. The detection reagent was prepared from a buffer (50 mM Tris-HCl pH 7.5, 50 mM KCL, 0.01% Triton X-100, and 0.01% BSA), 3 µM compound PDD00017273, 1.5× Mab anti-6HIS XL665 (Cisbio: 61HISXLA), and 1.5× streptavidin terbium cryptate (Cisbio: 610SATLA). The final concentrations of the compound PDD00017273, the 1.5× Mab anti-6HIS XL665 (Cisbio: 61HISXLA), and the 1.5× streptavidin terbium cryptate were 1 µM, 0.5×, and 0.5×, respectively. After incubation in the dark at room temperature for 120 min, TR-FRET signals were measured at Ex 340, Em 665, and Em 615. The ratio for each well was calculated as Em 665/Em 615 (the ratio here corresponds to the ratio of fluorescence signals at the wavelengths).

His-GST tagged PARG, sequence (Q86W56 whole entry): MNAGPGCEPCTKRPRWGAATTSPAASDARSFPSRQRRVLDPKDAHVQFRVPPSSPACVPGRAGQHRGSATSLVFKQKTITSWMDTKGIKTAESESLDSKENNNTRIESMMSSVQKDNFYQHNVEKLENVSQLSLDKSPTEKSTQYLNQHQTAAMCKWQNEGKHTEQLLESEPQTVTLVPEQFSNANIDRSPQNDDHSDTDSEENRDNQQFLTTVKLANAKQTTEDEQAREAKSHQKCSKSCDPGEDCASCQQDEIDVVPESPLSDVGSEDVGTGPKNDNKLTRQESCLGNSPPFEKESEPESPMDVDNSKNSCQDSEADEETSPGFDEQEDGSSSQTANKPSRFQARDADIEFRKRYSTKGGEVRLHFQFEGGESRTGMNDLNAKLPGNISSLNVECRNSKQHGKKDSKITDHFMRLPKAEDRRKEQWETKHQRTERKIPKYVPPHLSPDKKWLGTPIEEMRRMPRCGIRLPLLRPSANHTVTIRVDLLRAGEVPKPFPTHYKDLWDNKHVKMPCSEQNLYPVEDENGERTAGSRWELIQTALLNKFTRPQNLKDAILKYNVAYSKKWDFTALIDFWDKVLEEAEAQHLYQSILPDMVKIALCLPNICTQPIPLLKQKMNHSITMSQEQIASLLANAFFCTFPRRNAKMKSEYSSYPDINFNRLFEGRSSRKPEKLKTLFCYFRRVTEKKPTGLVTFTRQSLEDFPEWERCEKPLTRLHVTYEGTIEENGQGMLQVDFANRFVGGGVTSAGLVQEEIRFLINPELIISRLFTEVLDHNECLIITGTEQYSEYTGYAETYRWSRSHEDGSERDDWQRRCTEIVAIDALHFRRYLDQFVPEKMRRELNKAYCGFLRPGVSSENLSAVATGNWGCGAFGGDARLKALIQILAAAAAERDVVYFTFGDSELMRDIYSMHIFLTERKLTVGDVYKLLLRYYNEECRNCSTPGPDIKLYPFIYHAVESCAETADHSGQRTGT

With `CO[C@@H](C(=O)N1CCN(c2cc(S(=O)(=O)NC3(C#N)CC3)cc3c2cnn3-c2nnc(C)s2)C[C@H]1C)C(C)C` [EVO29420], the IC50 was below 0.1 µM. Compound `C[C@@H]1CN(c2cc(S(=O)(=O)NC3(C#N)CC3)cc3c2cnn3-c2nnc(C(F)F)s2)CCN1C(=O)[C@](C)(O)C(F)(F)F` [EVO29462] registered an IC50 below 0.1 µM. The result for `CO[C@H](C)C(=O)N1CCN(c2cc(S(=O)(=O)NC3(C)CC3)cc3c2cnn3-c2nnc(C)s2)C[C@H]1C` [EVO29412] reads below 0.1 µM. The figure for `CO[C@@H](C(=O)N1CCN(c2cc(S(=O)(=O)NC3(C)CC3)cc3c2cnn3-c2nnc(C)s2)C[C@H]1C)C(C)C` [EVO29421] is below 0.1 µM; for `CC(C)(C)[C@@H](O)C(=O)N1CCN(c2cc(S(=O)(=O)NC3(C#N)CC3)cc3c2cnn3-c2nnc(C(F)F)s2)C[C@H]1CF` [EVO29778] it is below 0.1 µM. `COC(C)(C)C(=O)N1CCN(c2cc(S(=O)(=O)NC3(C#N)CC3)cc3c2cnn3-c2nnc(C(F)F)s2)C[C@H]1C` [EVO29426] showed a 50% inhibitory concentration (IC50) below 0.1 µM. The result for `C[C@@H]1CN(c2cc(S(=O)(=O)NC3(C#N)CC3)cc3c2cnn3-c2nnc(C(F)F)s2)CCN1C(=O)C(O)C1CC1` (single isomer, unassigned) [EVO29537] reads below 0.1 µM; that for `C[C@@H]1CN(c2cc(S(=O)(=O)NC3(C)CC3)cc3c2cnn3-c2nnc(C(F)F)s2)CCN1C(=O)C(=O)C1CC1` [EVO29387], below 0.1 µM. The result for `N#CC1(NS(=O)(=O)c2cc(N3CCN(C(=O)CO)CC3)c3cnn(-c4nnc(C(F)F)s4)c3c2)CC1` [EVO29103] reads below 0.1 µM; that for `C[C@@H]1CN(c2cc(S(=O)(=O)NC3(C)CC3)cc3c2cnn3-c2nnc(C(F)F)s2)CCN1C(=O)C(C)(C)O` [EVO29469], below 0.1 µM. In turn, `CO[C@@H](C(=O)N1CCN(c2cc(S(=O)(=O)NC3(C#N)CC3)cc3c2cnn3-c2nnc(C(F)F)s2)C[C@H]1C)C(C)(C)C` [EVO29736] registered an IC50 below 0.1 µM. The result for `C[C@@H]1CN(c2cc(S(=O)(=O)NC3(C)CC3)cc3c2cnn3-c2nnc(C(F)F)s2)CCN1C(=O)C(=O)C(C)(C)C` [EVO29406] reads below 0.1 µM; that for `Cc1nnc(-n2ncc3c(N4CCN(C(=O)[C@@H](C)O)[C@H](C)C4)cc(S(=O)(=O)NC4(C)CC4)cc32)s1` [EVO29338], below 0.1 µM.

`C[C@@H]1CN(c2cc(S(=O)(=O)NC3(C#N)CC3)cc3c2c(F)nn3-c2nnc(C(F)F)s2)CCN1C(=O)[C@](C)(O)C(F)(F)F` [EVO29762] returned an IC50 below 0.1 µM.
